Measured values reported in US10350213B2 (AI Therapeutics, Inc., priority 2015, dated 2019).
Where two headings read alike, the source gives them in different places.

Assays:
[1] = test system: 122 human cancer cell lines representing 24 tumor types; experiment: 3-day CellTiterGlo assay, cancer cell line panel; type: cell-based; settings: of 122 human cancer cell lines; sensitive if IC50 less than 500 nM; 3-day assay
Text: (§1) 35 cell lines were identified as sensitive to apilimod-induced cytotoxicity in this assay. The apilimod-sensitive cells included cells derived from several different cancers including non-Hodgkin's lymphoma, Hodgkin's lymphoma, colorectal cancer, and lung cancer. The most sensitive of those tested were non-Hodgkin's Lymphoma (NHL) cell lines. […] The only NHL subtype not sensitive in this assay was follicular.

[2] = test system: LnCap (Human prostate cancer); experiment: CellTiterGlo cell viability assay; type: cell-based
[3] = test system: H460 (Human lung carcinoma); experiment: CellTiterGlo cell viability assay; type: cell-based; settings: NCI-H460
Method: (§2) Briefly, test compounds (5 μl stock solution, 6×desired final well concentration) were dispensed to 384-well assay plates, TSC2−/− MEF cells (1000 cells per well in 25 μL of media) were added to the plates and the plates were incubated for 72 h (3 days) at 37° C. under an atmosphere of 5% CO2 in a humidified incubator for 3 days. Cell viability was determined with CellTiter-Glo® luminescence assay (Promega) per the manufacturer's instructions. Viability was expressed as a percentage of untreated control cells.
as §1

[4] = test system: CAMA1 (Human breast cancer); experiment: CellTiterGlo cell viability assay; type: cell-based; settings: CAMA-1
Method: as §2, §1

[5] = test system: KARPAS-422 (Human Diffuse Large B Cell Lymphoma -GCB); experiment: CellTiterGlo cell viability assay; type: cell-based; settings: Human DLBCL-GCB
Method: as §2, §1

[6] = test system: Raji (Human Burkitt's lymphoma); experiment: CellTiterGlo cell viability assay; type: cell-based
Method: as §2, §1

[7] = test system: Namalwa (Human Burkitt's lymphoma); experiment: CellTiterGlo cell viability assay; type: cell-based
Method: as §2, §1

[8] = test system: GA-10 (Human Burkitt's lymphoma); experiment: CellTiterGlo cell viability assay; type: cell-based
Method: as §2, §1

[9] = test system: RL (Human Follicular B Cell Lymphoma); experiment: CellTiterGlo cell viability assay; type: cell-based
Method: as §2, §1

[10] = test system: U937 (Human histiocytic lymphoma); experiment: CellTiterGlo cell viability assay; type: cell-based; settings: U-937
Method: as §2, §1

[11] = test system: SW1116 (Human colorectal cancer); experiment: CellTiterGlo cell viability assay; type: cell-based; settings: SW 1116
Method: as §2, §1

[12] = test system: KMH-2 (Human Hodgkin's lymphoma); experiment: CellTiterGlo cell viability assay; type: cell-based; settings: KM-H2
Method: as §2, §1

LOVO (Human Colorectal) = experiment: CellTiterGlo cell viability assay; type: cell-based
Method: as §2, §1

[13] = test system: U-118 MG (Human neuroblastoma); experiment: CellTiterGlo cell viability assay; type: cell-based
Method: as §2, §1

[14] = test system: DLD-1 (Human colorectal cancer); experiment: CellTiterGlo cell viability assay; type: cell-based
Method: as §2, §1

[15] = test system: GRANTA-519 (Human Mantle Cell Lymphoma); experiment: CellTiterGlo cell viability assay; type: cell-based
Method: as §2, §1

[16] = test system: SW1573 (Human bronchioalveolar); experiment: CellTiterGlo cell viability assay; type: cell-based
Method: as §2, §1

[17] = test system: L428 (Human Hodgkin's lymphoma); experiment: CellTiterGlo cell viability assay; type: cell-based; settings: L-428
Method: as §2, §1

[18] = test system: RKO (Human colorectal cancer); experiment: CellTiterGlo cell viability assay; type: cell-based
Method: as §2, §1

[19] = test system: NCI-H1650 (Human bronchioalveolar); experiment: CellTiterGlo cell viability assay; type: cell-based
Method: as §2, §1

[20] = test system: DOHH-2 (Human Follicular B Cell Lymphoma-GCB); experiment: CellTiterGlo cell viability assay; type: cell-based; settings: Human Follicular Lymphoma - DLBCL-GCB
Method: as §2, §1

[21] = test system: MDST8 (Human colorectal cancer); experiment: CellTiterGlo cell viability assay; type: cell-based
Method: as §2, §1

[22] = test system: HCT-15 (Human Colorectal); experiment: CellTiterGlo cell viability assay; type: cell-based
Method: as §2, §1

[23] = test system: NCI-H1666 (Human bronchioalveolar); experiment: CellTiterGlo cell viability assay; type: cell-based
Method: as §2, §1

[24] = test system: SUDHL-6 (Human Diffuse Large B Cell Lymphoma -GCB); experiment: CellTiterGlo cell viability assay; type: cell-based; settings: SU-DHL-6, Human DLBCL-GCB
Method: as §2, §1

SW480 (Human Colorectal) = experiment: CellTiterGlo cell viability assay; type: cell-based
Method: as §2, §1

[25] = test system: HDLM-2 (Human Hodgkin's lymphoma); experiment: CellTiterGlo cell viability assay; type: cell-based
Method: as §2, §1

[26] = test system: MOLT-4 (Human T-cell leukemia); experiment: CellTiterGlo cell viability assay; type: cell-based
Method: as §2, §1

HT-29 (Human Colorectal) = experiment: CellTiterGlo cell viability assay; type: cell-based
Method: as §2, §1

[27] = test system: EB1 (Human Burkitt's lymphoma); experiment: CellTiterGlo cell viability assay; type: cell-based
Method: as §2, §1

[28] = test system: Rec-1 (Human Mantle Cell Lymphoma); experiment: CellTiterGlo cell viability assay; type: cell-based; settings: Rec1
Method: as §2, §1

[29] = test system: DB (Human B-cell lymphoma); experiment: CellTiterGlo cell viability assay; type: cell-based; settings: Human DLBCL-GCB
Method: as §2, §1

[30] = test system: COLO-205 (Human Colorectal); experiment: CellTiterGlo cell viability assay; type: cell-based
Method: as §2, §1

[31] = test system: SUDHL-10 (Human Diffuse Large B Cell Lymphoma -GCB); experiment: CellTiterGlo cell viability assay; type: cell-based; settings: SU-DHL10, Human DLBCL-GCB
Method: as §2, §1

[32] = test system: H358 (Human lung carcinoma); experiment: CellTiterGlo cell viability assay; type: cell-based; settings: NCI-H358
[33] = active Crohn's disease; Sands et al. 2010; cited from earlier work
[34] = test system: SUDHL-4 (Human Diffuse Large B Cell Lymphoma -GCB); experiment: CellTiterGlo cell viability assay; type: cell-based
[35] = test system: synovial IL-12 and IL-23 expression; settings: patients with rheumatoid arthritis; Krauz et al. 2012; cited from earlier work

Cc1cccc(/C=N/Nc2cc(N3CCOCC3)nc(OCCc3ccccn3)n2)c1 [apilimod]
number of cell lines sensitive to apilimod-induced cytotoxicity [1]: 35
IC50 [2]: 3000 nM
IC50 [3]: > 2000 nM
IC50 [4]: > 10000 nM
IC50 [5]: > 10000 nM
IC50 [6]: > 10000 nM
IC50 [7]: 600 nM
IC50 [8]: 382 nM
IC50 [9]: > 10000 nM
IC50 [10]: 106 nM
IC50 [11]: 1500 nM
IC50 [12]: 181 nM
IC50 (LOVO (Human Colorectal)): > 10000 nM
IC50 [13]: > 10000 nM
IC50 [14]: > 5000 nM
IC50 [15]: > 10000 nM
IC50 [16]: > 20000 nM
IC50 [17]: 10000 nM
IC50 [18]: > 5000 nM
IC50 [19]: > 20000 nM
IC50 [20]: 700 nM
IC50 [21]: 1000 nM
IC50 [22]: 200 nM
IC50 [23]: 20000 nM
IC50 [24]: 80 nM
IC50 (SW480 (Human Colorectal)): 90 nM
IC50 [25]: > 1000 nM
IC50 [26]: 3300 nM
IC50 (HT-29 (Human Colorectal)): > 10000 nM
IC50 [27]: 174 nM
IC50 [28]: 300 nM
IC50 [29]: 150 nM
IC50 [30]: 380 nM
IC50 [31]: 20 nM
IC50 [32]: > 2000 nM
efficacy over placebo [33]: did not demonstrate efficacy over placebo
tolerability [33]: well tolerated
IC50 ([34]; Homo sapiens, 72 h, SU-DHL-4, three-day assay, read-out: IC50 (nM) SU-DHL-4): 23 nM
IC50 ([34]; Homo sapiens, SU-DHL-4, 72 h, SUDHL-4, 3-day CellTiterGlo assay, read-out: IC50): 50 nM
IC50 ([34]; SU-DHL-4, SUDHL-4, Human DLBCL-GCB, read-out: IC50): 25 nM
effect on synovial IL-12 and IL-23 expression [35]: failed to alter synovial IL-12 and IL-23 expression
